Experimental data: paper PMC10216551 (2023)

Columns and labels:
[1] = tested on: H1-8 (DNA, aptamer) GACGACGTAGCGGCGGTGTGGGCATTTTGGGCTAAAGTCGTC; experiment: ITC; conditions: 500 mM NaCl, 10 mM MgCl2; 50 mM HEPES pH 7.6, 25 °C; one-site fit
[2] = tested on: H10 (DNA, aptamer) GACGACTAGAGGGGGCCCGTTATTCGGTGATGTCTTGTCGTCCCGATGCT; experiment: ITC; conditions: 500 mM NaCl, 10 mM MgCl2; 50 mM HEPES pH 7.6, 25 °C; 10 μM aptamer, 0.33 mM 5-HMF in syringe
[3] = tested on: H1-21 (DNA, aptamer) GTAGCGGCGGTGTGGGCATTTTGGGCTAA; experiment: ITC; conditions: 500 mM NaCl, 10 mM MgCl2; 50 mM HEPES pH 7.6, 25 °C; one-site fit
[4] = tested on: FAM-H1-8 (DNA, aptamer) GACGACGTAGCGGCGGTGTGGGCATTTTGGGCTAAAGTCGTC; experiment: fluorescence, quencher strand displacement; conditions: 500 mM NaCl, 10 mM MgCl2, 50 mM HEPES pH 7.6, room temperature
[5] = tested on: H1 (DNA, aptamer) GACGACGTAGCGGCGGTGTGGGCATTTTGGGCTAAAGTCGTCCCGATGCT; experiment: ITC; conditions: 500 mM NaCl, 10 mM MgCl2, 50 mM HEPES pH 7.6, 25 °C
[6] = tested on: H1-12 (DNA, aptamer) CGACGTAGCGGCGGTGTGGGCATTTTGGGCTAAAGTCG; experiment: ITC; conditions: 500 mM NaCl, 10 mM MgCl2; 50 mM HEPES pH 7.6, 25 °C; one-site fit
[7] = tested on: H2 (DNA, aptamer) GACGACTGTGGGCTGCCAAGGGCGCGTAGGGCGAAAGTCGTCCCGATGCT; experiment: ITC; conditions: 500 mM NaCl, 10 mM MgCl2, 50 mM HEPES pH 7.6, 25 °C
[8] = tested on: H3 (DNA, aptamer) GACGACTAAGCGGCGGTGTGGGCATTTTGGGCTTTTGTCGTCCCGATGCT; experiment: ITC; conditions: 500 mM NaCl, 10 mM MgCl2, 50 mM HEPES pH 7.6, 25 °C
[9] = tested on: H7 (DNA, aptamer) GACGACGTCCCGATGCTGCAATCGTAAACCCGTTATGTCGTCCCGATGCT; experiment: ITC; conditions: 500 mM NaCl, 10 mM MgCl2; 50 mM HEPES pH 7.6, 25 °C; 10 μM aptamer, 0.33 mM 5-HMF in syringe
[10] = tested on: H1-14 (DNA, aptamer) GACGTAGCGGCGGTGTGGGCATTTTGGGCTAAAGTC; experiment: ITC; conditions: 500 mM NaCl, 10 mM MgCl2; 50 mM HEPES pH 7.6, 25 °C; one-site fit

SMILES	Kd [1] [µM]	binding [2]	Kd [3] [µM]	Kd ([4]; apparent, BHQ1-cDNA displaced (1:2), 5-HMF 0–2000 μM) [µM]	Kd ([5]; one-site fit) [µM]	Kd [6] [µM]	Kd ([7]; one-site fit) [µM]	Kd ([8]; one-site fit) [µM]	binding [9]	Kd [10] [µM]	binding ([4]; BHQ1-cDNA as displaced strand, up to 100 μM FF)	binding ([5]; FF concentration not stated)	binding ([7]; FF concentration not stated)	binding ([8]; FF concentration not stated)
O=Cc1ccc(CO)o1	1.79 ± 0.60	no	4.7 ± 0.6	64	2.46 ± 1.90	1.22 ± 0.90	8.76 ± 2.50	12.40 ± 2.70	no	6.50 ± 1.80	–	–	–	–
O=Cc1ccco1	–	–	–	–	–	–	–	–	–	–	no	no	no	no
